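48-hour exposure; five concentrations; linearly interpolated endpoints. Here, GI50 denotes the concentration required for 50% inhibition of growth.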 Activity calls are given as the source filed them. Rule as the data show it: active = GI50 up to about 1.1 µM and inactive = higher.
Experiments:
Assay in all cases: inhibition of tumour cell growth, NCI panel, 48 h
NCI-H226 = test system: NCI-H226
MCF7 = test system: MCF7
NCI-H522 = test system: NCI-H522
NCI-H23 = test system: NCI-H23
CAKI-1 = test system: CAKI-1
SR = test system: SR
HCT-116 = test system: HCT-116
RXF 393 = test system: RXF 393
PC-3 = test system: PC-3
NCI/ADR-RES = test system: NCI/ADR-RES
UACC-62 = test system: UACC-62
SW-620 = test system: SW-620
RPMI-8226 = test system: RPMI-8226
HOP-62 = test system: HOP-62
SNB-19 = test system: SNB-19
UO-31 = test system: UO-31
DU-145 = test system: DU-145
KM12 = test system: KM12
OVCAR-4 = test system: OVCAR-4
UACC-257 = test system: UACC-257

CC(OCc1ccccc1)C(NC(=O)C1CSSCC(NC(=O)C(Cc2ccccc2)NC(=O)OCc2ccccc2)C(=O)NC(Cc2ccccc2)C(=O)NC(Cc2cn(C=O)c3ccccc23)C(=O)NC(CCCCNC(=O)OCc2ccccc2)C(=O)NC(C(C)OCc2ccccc2)C(=O)N1)C(N)=O (stereo not given)
GI50 (NCI-H226): > 75 µM (inactive)
GI50 (MCF7): 8.02 µM (inactive)
GI50 (NCI-H522): 17.4 µM (inactive)
GI50 (NCI-H23): 33.4 µM (inactive)
GI50 (CAKI-1): 46 µM (inactive)
GI50 (SR): 34 µM (inactive)
GI50 (HCT-116): 17.7 µM (inactive)
GI50 (RXF 393): 97.1 µM (inactive)
GI50 (PC-3): 19.1 µM (inactive)
GI50 (NCI/ADR-RES): > 100 µM (inactive)
GI50 (UACC-62): 72.6 µM (inactive)
GI50 (SW-620): 13.4 µM (inactive)
GI50 (RPMI-8226): 5.04 µM (inactive)
GI50 (HOP-62): 55.1 µM (inactive)
GI50 (SNB-19): 36.7 µM (inactive)
GI50 (UO-31): 78.3 µM (inactive)
GI50 (DU-145): 30.5 µM (inactive)
GI50 (KM12): 3.91 µM (inactive)
GI50 (OVCAR-4): > 43.5 µM (inactive)
GI50 (UACC-257): 44 µM (inactive)

COC(C)(C)/C=C/c1[nH]c2ccccc2c1CC(=O)NCCc1cn(C(c2ccccc2)(c2ccccc2)c2ccccc2)cn1
GI50 (NCI-H226): 3.65 µM (inactive)
GI50 (MCF7): 3.66 µM (inactive)
GI50 (NCI-H522): 3.66 µM (inactive)
GI50 (NCI-H23): 4.41 µM (inactive)
GI50 (CAKI-1): 15.9 µM (inactive)
GI50 (SR): 2.23 µM (inactive)
GI50 (HCT-116): 4.12 µM (inactive)
GI50 (RXF 393): 7.16 µM (inactive)
GI50 (PC-3): 3.44 µM (inactive)
GI50 (NCI/ADR-RES): 5.12 µM (inactive)
GI50 (UACC-62): 6.44 µM (inactive)
GI50 (SW-620): 4.23 µM (inactive)
GI50 (RPMI-8226): 2.39 µM (inactive)
GI50 (HOP-62): 5.92 µM (inactive)
GI50 (SNB-19): 7.5 µM (inactive)
GI50 (UO-31): 5.77 µM (inactive)
GI50 (DU-145): > 31.6 µM (inactive)
GI50 (KM12): 4.22 µM (inactive)
GI50 (OVCAR-4): 4.9 µM (inactive)
GI50 (UACC-257): 4.02 µM (inactive)

CC(C)(CN1CCCCC1)C(=O)/C=C/c1ccc(/C=C/C(=O)C(C)(C)CN2CCCCC2)cc1
GI50 (NCI-H226): 1.84 µM (inactive)
GI50 (MCF7): 0.247 µM (active)
GI50 (NCI-H522): 0.0454 µM (active)
GI50 (NCI-H23): 0.711 µM (active)
GI50 (CAKI-1): 0.303 µM (active)
GI50 (SR): 0.103 µM (active)
GI50 (HCT-116): 0.303 µM (active)
GI50 (RXF 393): 0.28 µM (active)
GI50 (PC-3): 0.273 µM (active)
GI50 (NCI/ADR-RES): 0.393 µM (active)
GI50 (UACC-62): 1.02 µM (active)
GI50 (SW-620): 0.112 µM (active)
GI50 (RPMI-8226): 0.193 µM (active)
GI50 (HOP-62): 0.946 µM (active)
GI50 (SNB-19): 1.35 µM (inactive)
GI50 (UO-31): 1.14 µM (inactive)
GI50 (DU-145): 1.94 µM (inactive)
GI50 (KM12): 0.434 µM (active)
GI50 (OVCAR-4): 0.368 µM (active)
GI50 (UACC-257): 1.05 µM (active)

O=C1CCCc2cc3c(cc21)CCC3C(=O)O (stereo not given)
GI50 (NCI-H226): > 100 µM (inactive)
GI50 (MCF7): > 100 µM (inactive)
GI50 (NCI-H522): > 100 µM (inactive)
GI50 (NCI-H23): > 100 µM (inactive)
GI50 (CAKI-1): > 100 µM (inactive)
GI50 (SR): > 100 µM (inactive)
GI50 (HCT-116): > 100 µM (inactive)
GI50 (RXF 393): > 100 µM (inactive)
GI50 (PC-3): > 100 µM (inactive)
GI50 (NCI/ADR-RES): > 100 µM (inactive)
GI50 (UACC-62): > 100 µM (inactive)
GI50 (SW-620): > 100 µM (inactive)
GI50 (RPMI-8226): > 100 µM (inactive)
GI50 (HOP-62): > 100 µM (inactive)
GI50 (SNB-19): > 100 µM (inactive)
GI50 (UO-31): > 100 µM (inactive)
GI50 (DU-145): > 100 µM (inactive)
GI50 (KM12): > 100 µM (inactive)
GI50 (OVCAR-4): > 100 µM (inactive)
GI50 (UACC-257): > 100 µM (inactive)

CC[C@H]1C=CCC[C@@]2(C[C@@H]3CC[C@@H]4[C@H](C(=O)OCCCCCCCCCCCCCCCC(=O)N(CCCN)C[C@@H](O)CCN)[C@]5(CCC[C@@H](C)O5)NC(=[N+]34)N2)O1
GI50 (NCI-H226): 0.968 µM (active)
GI50 (MCF7): 0.46 µM (active)
GI50 (NCI-H522): 0.174 µM (active)
GI50 (NCI-H23): 0.92 µM (active)
GI50 (CAKI-1): 0.0528 µM (active)
GI50 (SR): 0.0802 µM (active)
GI50 (HCT-116): 0.286 µM (active)
GI50 (RXF 393): 0.439 µM (active)
GI50 (PC-3): 0.385 µM (active)
GI50 (NCI/ADR-RES): 0.733 µM (active)
GI50 (UACC-62): 0.0678 µM (active)
GI50 (SW-620): 0.352 µM (active)
GI50 (RPMI-8226): 0.0855 µM (active)
GI50 (HOP-62): 1.13 µM (inactive)
GI50 (SNB-19): 0.0822 µM (active)
GI50 (UO-31): 0.337 µM (active)
GI50 (DU-145): 0.731 µM (active)
GI50 (KM12): 0.447 µM (active)
GI50 (OVCAR-4): 0.474 µM (active)
GI50 (UACC-257): 0.122 µM (active)
